# Patent US5567693A, “Method for inhibiting angiogenesis, proliferation of endothelial or tumor cells and tumor growth” (American Cyanamid Company, priority 1994, dated 1996)
# Where a name gives a salt, the structure may show the parent alone.
# Legend:
# Format in all cases: cell-based
# Conditions in all cases: PROTOCOL 1 and PROTOCOL 2, 48 hours
# [1] = system: A2780/DDP; assay: Antiproliferative activity in human tumor cell lines: A2780/DDP (ovarian)
# Protocol: (§1) The assays are identified as follows:
# (§2) PROTOCOL 1,2,and 3 are described in greater detail hereinbelow. In general, according to PROTOCOLS 1 and 2, the target ABAE and/or Human Tumor cells are exposed to the compounds of Formula I for 48 hours. PROTOCOL 3 exposes ABAE cells to the compounds for 4 days. A detailed description of the protocols is as follows:
# (§3) The antiproliferative activity of the compounds of Formula I of the present invention is evaluated in a panel comprised of human tumor cell lines and an adult bovine aortic endothelial cell line (ABAE). The human tumor cell lines are from
# (§4) Cultures are renewed after 20 passages with cells from a fresh stock of batch-frozen early passage cells. Cell lines are routinely checked for mycoplasma contamination (Genprobe). In a laminar flow hood, cells (1-5×10^4) are plated into 96-well microtiter plates in a volume of 0.1 ml/well with a bulk microtiter dispenser (Denley). […] Compounds are added using a Tomtec dispenser which simultaneously dispenses from one 96-well plate, containing the drug dilutions, to the plates containing the cells. After two days of continuous drug exposure, 50% cold trichloroacetic acid (TCA) is added to 10% final concentration to fix the cells, and after 60 minutes at 4° C., the TCA is aspirated and the plates are washed 5 times with deionized water using a microtiter plate washer. […] A 0.4% solution of the dye, sulforhodamine B, in […] is added to the plates, and the plates are washed 5 times with 1% glacial acetic acid using the automatic plate washed. The bound stain is solubilized with 0.1 ml of 10 mM Tris base. The optical densities are read from an automatic spectrophotometric plate reader (Dynatech) directly to a main frame computer (VAX 8600).
# (§5) Positive controls, that include standard chemotherapeutic drugs (i.e., Adriamycin, Cisplatin, etc.), are included in every experiment.
# (§6) Background optical density measurements (complete media-cells, and complete media+drug-cells) are automatically subtracted from the appropriate control and test wells. Mean values and standard errors are determined from duplicate wells. A measure is also made of the optical density at time when the drugs are added. The number of cells after treatment (P), as % of control, is calculated for every concentration of drug, as follows: [formula] wherein: T is optical density measurement for treated cells after 48 hours;
# (§7) C is optical density measurement for untreated cells after 48 hours;
# (§8) Co is optical density measurement for cells at the time of drug addition.
# (§9) IC50 of growth inhibition is calculated from the sets of P values using the RS-1 data package (BBN Software).
# (§10) The antiproliferative activity of the compounds of Formula I is evaluated in a panel comprised of human tumor cell lines and an adult bovine aortic cell line (ABAE) as listed in PROTOCOL 1. This assay is a modification of PROTOCOL 1. The modifications include:
# (§11) 1) each concentration for each compound is tested in a single well;
# (§12) 2) compounds are tested at 20, 4, 0.8, 0.16 microgram/ml and additionally in some experiments at 100 and 0.32 microgram/ml;
# (§13) 3) samples are pipetted into a 96-well plate for each of the cell lines by a Beckman Biomek 1000 SL robot;
# (§14) 4) after fixing with TCA each well is washed with 0.35 ml distilled water twice, not five times;
# (§15) 5) after staining with sulforhodamine B each well is washed 3 times, not five times;
# (§16) 6) the growth inhibition (I) as % of control, is calculated using the RS-1 data package (BBN Software), for every concentration of drug, as follows: [formula] wherein: T is optical density measurement for treated cells after 48 hours;
# (§17) 7) IC50 of growth inhibition is determined graphically from dose response curves, as is known in the art.
# [2] = system: A2780S; assay: Antiproliferative activity in human tumor cell lines: A2780S (ovarian)
# Protocol: as §1, §2, §3, §4, §5, §6, §7, §8, §9, §10, §11, §12, §13, §14, §15, §16, §17
# [3] = system: MIP; assay: Antiproliferative activity in human tumor cell lines: MIP (colon)
# Protocol: The antiproliferative activity of the compounds of Formula I in an Adult Bovine Aortic Endothelial (ABAE) cell line and in Human Tumor cell lines is evaluated in three similar assays that measure growth inhibition. The assays are identified as follows:
# as §2, §3
# All cell lines are maintained in log phase in RPMI 1640 media, supplemented with 5% fetal calf serum, penicillin/streptomycin and 2 mM L-glutamine. Cultures are renewed after 20 passages with cells from a fresh stock of batch-frozen early passage cells. Cell lines are routinely checked for mycoplasma contamination (Genprobe). In a laminar flow hood, cells (1-5×10^4) are plated into 96-well microtiter plates in a volume of 0.1 ml/well with a bulk microtiter dispenser (Denley). […] At this concentration, dimethylsulfoxide has no effect on cell growth. Compounds are added using a Tomtec dispenser which simultaneously dispenses from one 96-well plate, containing the drug dilutions, to the plates containing the cells. After two days of continuous drug exposure, 50% cold trichloroacetic acid (TCA) is added to 10% final concentration to fix the cells, and after 60 minutes at 4° C., the TCA is aspirated and the plates are washed 5 times with deionized water using a microtiter plate washer. The number of cells on the plate are quantitated using a protein dye-binding assay (Monks et al., 1991). A 0.4% solution of the dye, sulforhodamine B, in glacial acetic acid is added to the plates, and the plates are washed 5 times with 1% glacial acetic acid using the automatic plate washed. The bound stain is solubilized with 0.1 ml of 10 mM Tris base. The optical densities are read from an automatic spectrophotometric plate reader (Dynatech) directly to a main frame computer (VAX 8600).
# as §5, §6, §7, §8, §9, §10, §11, §12, §13, §14
# 5) after staining with sulforhodamine B each well is washed 3 times, not five times; […]
Compound,IC50 [1] [µg/mL],IC50 [2] [µg/mL],IC50 [3] [µg/mL]
"CN(C)CC(=O)Nc1c(Cl)cc2c(c1O)C(=O)C1=C(O)[C@]3(O)C(=O)C(C(N)=O)=C(O)[C@@H](N(C)C)C3CC1C2 (stereo partly drawn) [Example 3, [4S-(45, 12aα)]-8-Chloro-4-(dimethylamino)-9[[(dimethylamino)acetyl]amino]-1,4,4a,5,5a,6,11,12a-octahydro-3,10,12,12a-tetrahydroxy-1,11-dioxo-2-naphthacenecarboxamide disulfate]",2.5,1.8,2.2
"CCCCNCC(=O)Nc1c(Cl)cc2c(c1O)C(=O)C1=C(O)[C@]3(O)C(=O)C(C(N)=O)=C(O)[C@@H](N(C)C)C3CC1C2 (stereo partly drawn) [Example 4, [4S-(4α, 12aα)]-9-[[(Butylamino)acetyl]amino]-8-chloro-4-(dimethylamino) -1,4,4a,5,5a,6,11,12a-octahydro-3,10,12,12a-tetrahydroxy-1,11-dioxo-2-naphthacenecarboxamide dihydrochloride]",2.8,2.5,3.1
"CCCNCC(=O)Nc1c(Cl)cc2c(c1O)C(=O)C1=C(O)[C@]3(O)C(=O)C(C(N)=O)=C(O)[C@@H](N(C)C)C3CC1C2 (stereo partly drawn) [Example 5, [4S-(4α, 12aα)]-8-Chloro-4-(dimethylamino)-1,4,4a,5,5a, 6,11,12a-octahydro-3,10,12,12a-tetrahydroxy-1,11-dioxo-9-[[(propylamino)acetyl]amino]-2-naphthacenecarboxamide dihydrochloride]",3,3,10
"CCCCCNCC(=O)Nc1c(Cl)cc2c(c1O)C(=O)C1=C(O)[C@]3(O)C(=O)C(C(N)=O)=C(O)[C@@H](N(C)C)C3CC1C2 (stereo partly drawn) [Example 6, [4S-(4α, 12aα)]-8-Chloro-4-(dimethylamino)-1,4,4a,5,5a,6,11,12a-octahydro-3,10,12,12a-tetrahydroxy-1,11-dioxo-9-[[(pentylamino)acetyl]amino]-2-naphthacenecarboxamide dihydrochloride]",0.7,0.5,1.5
"CNCC(=O)Nc1c(Cl)cc2c(c1O)C(=O)C1=C(O)[C@]3(O)C(=O)C(C(N)=O)=C(O)[C@@H](N(C)C)C3CC1C2 (stereo partly drawn) [Example 7, [4S-(4α, 12aα)]-8-Chloro-4-(dimethylamino)-1,4,4a,5,5a,6,11,12a-octahydro-3,10,12,12a-tetrahydroxy-1,11-dioxo-9-[[(methylamino)acetyl]amino]-2-naphthacenecarboxamide dihydrochloride]",3.8,4.6,8.5
"CN(C)[C@@H]1C(O)=C(C(N)=O)C(=O)[C@@]2(O)C(O)=C3C(=O)c4c(cc(Cl)c(NC(=O)CNCC5CC5)c4O)CC3CC12 (stereo partly drawn) [Example 8, [4S-(4α,12aα)]-8-Chloro-9-[[(cyclopropylmethylamino)-acetyl]amino]4-(dimethylamino)-1,4,4a,5,5a,6,11,12a-octahydro-3,10,12,12a-tetrahydroxy-1,11-dioxo-2-naphthacenecarboxamide dihydrochloride]",2.5,2.2,3.8
"CN(C)[C@@H]1C(O)=C(C(N)=O)C(=O)[C@@]2(O)C(O)=C3C(=O)c4c(cc(Cl)c(NC(=O)CN5CCCC5)c4O)CC3CC12 (stereo partly drawn) [Example 9, [7S-(7α,10aα)]-N-[9-(Aminocarbonyl)-3-chloro-7-(dimethylamino)-5,5a,6,6a,7,10,10a,12-octahydro-1,8,10a,11-tetrahydroxy-10,12-dioxo-2-naphthacenyl]-1-pyrrolidineacetamide dihydrochloride]",1,1.3,0.8
"CN(C)[C@@H]1C(O)=C(C(N)=O)C(=O)[C@@]2(O)C(O)=C3C(=O)c4c(cc(Cl)c(NC(=O)CN5CCCCC5)c4O)CC3CC12 (stereo partly drawn) [Example 10, 7S-(7α,10aα)]-N-[9-(Aminocarbonyl)-3-chloro-7-(dimethylamino)-5,5a,6,6a,7,10,10a,12-octahydro-1,8,10a,11-tetrahydroxy-10,12-dioxo-2-naphthacenyl]-1-piperidineacetamide dihydrochloride]",0.6,0.5,0.7
"CN(C)c1c(Cl)cc(O)c2c1CC1CC3[C@H](N(C)C)C(O)=C(C(N)=O)C(=O)[C@@]3(O)C(O)=C1C2=O (stereo partly drawn) [Example 11, [4S-(4α,12aα)]-8-Chloro-4,7-bis(dimethylamino)-1,4,4a,5,5a,6,11,12a-octahydro-3,10,12,12a-tetrahydroxy-1,11-dioxo-2-naphthacenecarboxamide sulfate]",3.85,1.6,2.6
